The target in data set [1] is T1, human GluR4B (Homo sapiens, UniProt P48058).
T1 construct: expressed in transfected cells; host or cells: HEK (HEK 293)
Put plainly: Fluo3-AM fluorescence test of glutamate-induced response in HEK cells, relative to 100 μM cyclothiazide. The class given is cell-based. The following applies: human GluR4B receptor expressed in HEK 293 cells. The procedure: 96 well plates containing confluent monolayers of HEK cells stably expressing human GluR4B (obtained as described in European Patent Application Publication Number EP-A1–583917) were prepared. The tissue culture medium in the wells was then discarded, and the wells were each washed once with 200 μl of 5NaCa buffer (glucose, 10 mM, sodium chloride, 138 mM, magnesium chloride, 1 mM, potassium chloride, 5 mM, calcium chloride, 5 mM, N-[2-hydroxyethyl]-piperazine-N-[2-ethanesulfonic acid], 10 mM, to pH 7.1 to 7.3). The plates were then incubated for 60 minutes in the dark with 20 μM Fluo3-AM dye (obtained from Molecular Probes Inc, Eugene, Oreg.) in 5 NaCa buffer in each well. After the incubation, each well was washed once with 100 μl 5NaCa buffer, 200 μl of 5NaCa buffer was added and the plates were incubated for 30 minutes. […]
Each test was then performed as follows. […] A first reading was then taken using a FLUOROSKAN II fluorimeter (Obtained from Labsystems, Needham Heights, Mass., USA, a Division of Life Sciences International Plc). […] A second reading was then taken using the fluorimeter. The plate was then left in the fluorimeter for 5 minutes, and a third reading was taken. 15 μl of 400 μM glutamate solution was then added to each well (final glutamate concentration 100 μM), and a fourth reading was taken immediately. Approximately three minutes later, a fifth reading was taken. […]

SMILES strings stand for the structures.

T1 sequence (P48058 21-902): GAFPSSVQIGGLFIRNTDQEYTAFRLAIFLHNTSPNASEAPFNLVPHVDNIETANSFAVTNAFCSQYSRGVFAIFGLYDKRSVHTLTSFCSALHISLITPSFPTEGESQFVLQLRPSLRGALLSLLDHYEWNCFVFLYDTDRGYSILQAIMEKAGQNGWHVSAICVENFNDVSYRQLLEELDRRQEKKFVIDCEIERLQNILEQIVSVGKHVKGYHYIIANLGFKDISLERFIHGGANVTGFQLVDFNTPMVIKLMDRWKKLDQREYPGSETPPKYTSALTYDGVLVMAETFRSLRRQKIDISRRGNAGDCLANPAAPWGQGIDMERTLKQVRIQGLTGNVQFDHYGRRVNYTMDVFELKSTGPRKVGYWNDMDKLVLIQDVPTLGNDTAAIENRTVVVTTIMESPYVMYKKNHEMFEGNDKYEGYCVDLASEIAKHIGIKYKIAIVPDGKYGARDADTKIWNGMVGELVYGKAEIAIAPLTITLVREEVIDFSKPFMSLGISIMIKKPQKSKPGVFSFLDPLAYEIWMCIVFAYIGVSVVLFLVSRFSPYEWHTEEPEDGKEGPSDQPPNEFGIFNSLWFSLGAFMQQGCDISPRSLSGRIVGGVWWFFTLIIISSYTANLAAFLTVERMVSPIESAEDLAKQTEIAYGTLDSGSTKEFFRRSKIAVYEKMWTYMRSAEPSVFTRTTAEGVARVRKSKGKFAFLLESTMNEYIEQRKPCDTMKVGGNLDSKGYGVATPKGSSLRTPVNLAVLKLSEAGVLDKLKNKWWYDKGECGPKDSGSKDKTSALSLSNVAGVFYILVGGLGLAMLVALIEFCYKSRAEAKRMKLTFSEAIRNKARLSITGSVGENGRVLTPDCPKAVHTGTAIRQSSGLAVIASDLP

Broadly, the melting point is the temperature, or range, at which the solid turns liquid. For `CC(C)(C)c1ccc(C2(CNS(=O)(=O)C(F)(F)F)CC2)cc1`, the melting point lay within 82 to 84 °C.
Regarding `CC(C)S(=O)(=O)NCC1(c2ccc(C(C)(C)C)cc2)CC1`, the melting point is 87 to 89.5 °C.
Consider `NS(=O)(=O)c1cc2c(cc1Cl)NC(C1CC3C=CC1C3)NS2(=O)=O` (stereo not drawn) [cyclothiazide], for which, in data set [1], the “potentiation of agonist-induced excitability of human GluR4B receptor” value is given as “potentiate”.

The record behind these values is patent publication US7135487B2, “Sulphonamide derivatives” (Eli Lilly and Company, priority 1997, dated 2006).
